Source: patent USH1427H, “Substituted flavonoid compounds, their salts, their manufacture and their use in combination with interleukin-2” (priority 1992, dated 1995)

Legend:
[1] = test system: serum IFN; assay type: in vivo; settings: Table 1
[2] = test system: YAC-1 tumor target; assay: Augmentation of NK activity, 4-hr 51Cr release assay with effector leukocytes from treated animals; assay type: in vivo, mice; settings: Table 1
Text: The immunomodulatory activity of boosting NK activity is readily determined in accordance with the protocol outlined by Wiltrout et al. in J. Exp. Med. (1984), vol. 160, p. 1431-1449, which is hereby incorporated by reference. Using this protocol, the flavonoid compounds of the present invention must be capable of boosting NK activity at least 2-fold, preferably at least 3-fold, and most preferably at least 4-fold, as measured in lytic units. (See "In Vitro Methods in Cell Mediated and Tumor Immunity", eds. Barry R. Bloom and John R. David, pub. Academic Press (1976), p. 427, for the definition of lytic units.)
Assessment of NK activity. […] Effector leukocytes were isolated from spleen, peritoneal cavity, lungs, and liver as previously described (J. Exp. Med., vol. 160, 1431 (1984) and J. Immunol., vol. 135, 1477 (1985)). NK activity was expressed as either [formula] or LU/1×10^7 cells, with one LU being the number of effector cells required to lyse 20% or 40% of the target cells. Statistical comparisons in NK activity were performed by the student's t-test.
Peak levels of NK-mediated lysis were generally achieved by 24 hour post injection, with levels of NK activity decreasing to background by about day 6.

[3] = test system: Renca renal adenocarcinoma; assay: Survival of Renca-bearing mice treated with flavonoid and/or rIL-2; assay type: in vivo, BALB/C mice; settings: Table 1, flavonoid plus rIL-2
Protocol: Tumor model. The model used for these studies is the Renca renal adenocarcinoma, a tumor that originated spontaneously and is maintained by serial transplant in BALB/C mice (JNCI, vol. 50, 1013 (1973)). […] After injection of 1×10^5 tumor cells under the renal capsule, the solid tumor mass develops rapidly with direct extension to the peritoneal cavity by days 7 to 9 and metastasis to regional lymph nodes and the liver shortly thereafter. […] Flavonoid was administered by injection of 125 mg/kg i.v. and 125 mg/kg i.p., whereas various doses of rIL-2 were delivered by the i.p. route. Routinely, flavonoid was administered 2 to 4 h after nephrectomy of the primary tumor-bearing kidney on day 11, and rIL-2 was administered once per day for 4 successive days beginning on the day after nephrectomy and FAA treatment. Statistical analysis of survival data was performed by the .chi.^2 test.
The flavonoid compound was administered by injection of e.g. 125 mg/kg i.v. and e.g. 125 mg/kg i.p., whereas various doses of rIL-2 were delivered by the i.p. route. Routinely, flavonoid compound was administered 2 to 4 hours after nephrectomy of the primary tumor-bearing kidney on day 11 and rIL-2 was administered once per day for 4 successive days beginning on the day after nephrectomy and flavonoid treatment. Statistical analysis of survival data was performed by the .chi.^2 test.
BALB/C mice (e.g. 10/group) were injected i.v. with 1×10^5 Renca tumor cells on day 0. On day 11 the tumor-bearing kidney was removed and 2 to 4 h later flavonoid (125 mg/kg i.v.+125 mg/kg i.p.) was administered to appropriate groups. Subsequently, beginning on day 12, some of the flavonoid pretreated mice and two groups of previously untreated mice received four daily i.p. injections of rIL-2 at doses of 30,000 U/day. Mice were then monitored for survival and statistical analyses performed by the .chi.^2 test.

[4] = test system: Renca murine renal cancer; settings: combined doxorubicin and adoptive immunotherapy with rIL-2; cited from earlier work
[5] = test system: natural killer activity; settings: cited from earlier work
[6] = test system: natural killer activity; settings: preliminary studies, Wiltrout et al.; cited from earlier work
[7] = test system: interferon; settings: preliminary studies, Wiltrout et al.; cited from earlier work
[8] = test system: established murine renal cancer; settings: established murine renal cancer in BALB/c mice; cited from earlier work
[9] = test system: Lewis lung carcinoma; settings: cited from earlier work
[10] = test system: metastatic renal cell cancer; settings: clinical trial, selected patients; Marshal et al.; cited from earlier work
[11] = Preliminary preclinical therapeutic synergy between coumarin and rIL2; assay type: in vivo; settings: preliminary preclinical experiments
Text: In another publication, Wiltrout et al., J. Natl. Cancer Inst.

O=C(O)Cc1cccc2c(=O)cc(-c3ccco3)oc12 [LM2888]
IFN [1]: I | NK [2]: + | Synergistic Therapy With IL-2 [3]: I

COc1cccc2c1C(=O)c1c(O)c3c(c(O)c1C2=O)C[C@@](O)(C(=O)CO)C[C@@H]3O[C@H]1C[C@H](N)[C@H](O)[C@H](C)O1 [doxorubicin]
treatment of Renca murine renal cancer [4]: successfully treated

O=C(O)Cc1cccc2c(=O)cc(-c3ccccc3)oc12 [flavone-8-acetic acid]
natural killer activity, flavone-8-acetic acid plus rIL-2 ([5]; combination with rIL-2, normal and tumor-bearing mice, Wiltrout et al.): synergistically augmented natural killer activity | natural killer activity in nonlymphoid organs (liver and lungs) as well as in the spleen ([5]; liver, lungs, spleen, Wiltrout et al.): could augment natural killer activity in nonlymphoid organs (liver and lungs) as well as in the spleen | splenic natural killer activity ([5]; spleen, Ching et al.): augments splenic natural killer activity | augmentation of natural killer activity in vitro [6]: failed to detect | induction of interferon in vitro [7]: failed to detect induction of interferon | anti-tumor effects, combination of flavone-8-acetic acid plus interleukin-2 [8]: synergistic anti-tumor effects | susceptibility of Lewis lung carcinoma cells implanted in diffusion chambers in the peritoneum ([9]; administered ip, diffusion chambers, Finlay et al.): not susceptible | anti-tumor effects against Lewis lung carcinoma ([9]; in vivo, mice, Finlay et al.): pronounced anti-tumor effects | tumoricidal activity in vivo compared with direct cytotoxic effects in vitro ([9]; mouse, in vivo): more pronounced and occurs more rapidly in vivo than direct cytotoxic effects observed in vitro

COc1cccc(-c2cc(=O)c3cccc(CC(=O)O)c3o2)c1 [LM2889]
IFN [1]: + | NK [2]: + | Synergistic Therapy With IL-2 [3]: +

C=C(C(=O)O)c1cccc2c(=O)cc(-c3ccccc3)oc12 [LM2891]
IFN [1]: + | NK [2]: + | Synergistic Therapy With IL-2 [3]: +

O=c1ccc2ccccc2o1 [coumarin]
anti-tumor activity in patients with metastatic renal cell cancer [10]: demonstrated anti-tumor activity | therapeutic synergy between coumarin and rIL2 [11]: no therapeutic synergy was observed
